“Also recorded” adds a separate entry of the source.
How the values were obtained:
SH-SY5Y cells = experiment: Cytoprotection against rotenone/oligomycin A, pre-incubation, MTT; type: cell-based, human; details: for Cytoprotection: pre-incubation with rotenone/oligomycin A; for Cytoprotective properties in the pre-incubation assay (in words): rotenone/oligomycin A, range of concentration 1–0.001 µM;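 on Cytoprotection: Toxic mixture Rotenone 30 µM plus Oligomycin A 10 µM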
Description: Rotenone with oligomycin A (R/O) were taken to induce mitochondrial ROS by blocking of complexes I and V of the mitochondrial electron transport chain. It causes free radical production and blockade of ATP synthesis. In the pre-incubation experiment, it could be assessed whether the compounds have cytoprotective properties due to the activation of endogenous antioxidant pathways. In the co-incubation could be shown whether compounds are free-radical scavengers. MTT assay was a test of choice, because in this assay mitochondrial activity is measured. […] It can be determined whether novel compound would protect cells from both apoptotic and necrotic death resulting from the increase of intracellular ROS. In both experiments, trolox was used as a reference compound. […] After this time, toxic mixture was added, and cells were maintained for an additional 24 h in the presence of the compounds.

supercoiled pUC19 DNA = details: 100 µM; human Topoisomerase I
[1] = target: T1, hyaluronidase from bovine testes Type I-S (Bos taurus, UniProt Q2YDK3); experiment: Hyaluronidase inhibition assay (turbidimetric); type: biochemical; details: read-out: HYAL IC50 ± SD
T1 construct: purchased Sigma Aldrich; host or cells: bovine testes (tissue-derived preparation)
T1 sequence (Q2YDK3 36-553): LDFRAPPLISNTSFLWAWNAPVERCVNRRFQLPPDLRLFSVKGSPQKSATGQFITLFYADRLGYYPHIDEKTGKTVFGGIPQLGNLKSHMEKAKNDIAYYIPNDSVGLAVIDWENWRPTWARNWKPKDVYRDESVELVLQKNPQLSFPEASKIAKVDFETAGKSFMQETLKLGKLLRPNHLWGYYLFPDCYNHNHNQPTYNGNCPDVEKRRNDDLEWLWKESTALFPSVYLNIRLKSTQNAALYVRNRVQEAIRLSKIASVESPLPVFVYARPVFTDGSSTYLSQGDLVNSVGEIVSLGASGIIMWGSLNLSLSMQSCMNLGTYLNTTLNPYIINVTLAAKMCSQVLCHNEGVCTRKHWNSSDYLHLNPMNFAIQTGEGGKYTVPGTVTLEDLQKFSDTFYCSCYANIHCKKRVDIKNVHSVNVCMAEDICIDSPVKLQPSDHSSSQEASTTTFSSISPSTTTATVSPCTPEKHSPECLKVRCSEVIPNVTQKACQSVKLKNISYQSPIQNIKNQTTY

A549 cells [2] = experiment: Reactive oxygen species assay (DCFH-DA), A549; type: cell-based, human; details: compound at IC50 24 h plus H2O2, H2O2 only 1.86-fold
Description: After incubation, compounds were added into the wells and further incubated for next 24 h. H2O2 (1 mM) was added at 22nd h of incubation with compounds. H2O2 was used as a positive control. 30 min before the analysis, DCFH-DA (20 µM) was added to the wells. After incubation, cells were harvested and washed in PBS. Then, cells were centrifuged at 1500 rpm for 10 min. Medium was removed and cells were suspended in PBS. Analysis was performed on BD Accuri C6 Flow Cytometry (Becton–Dickinson).

γ-H2AX = experiment: Western blot of γ-H2AX, A549; type: cell-based, human; details: A549, 24 h, IC50 and 1/2IC50
Description: (§1) Then, cells were treated with chosen compounds. After 24 h of incubation, monolayer and supernatant were harvested and washed in cold PBS. Cells were centrifuged—monolayer at 1200 rpm for 10 min, supernatant 3500 rpm for 10 min. Pellets were dissolved in RIPA Lysis and Extraction buffer (Bio-Rad) containing Phosphatase Inhibitor Cocktail 3 (Sigma Aldrich) and Protease Inhibitor Cocktail (Sigma Aldrich). Samples were incubated in ice for 30 min and mixed every 10 min. Then, samples were centrifuged at 12,000 rpm for 25 min. Protein concentration in supernatants was measured in triplicate using a Protein Assay (Bio-Rad). Proteins were separated by SDS–polyacrylamide gel electrophoresis. Separating and stacking gels were made of different ratios of water, Tris–HCl pH 6.8 and pH 8.8, 10% SDS (Sigma Aldrich), Acrylamide/bis-acrylamide (Sigma Aldrich), 10% APS (Sigma Aldrich), TEMED (Sigma Aldrich). 7.5% gels were prepared for analysis PARP-1, whereas 12% gels prepared for γ-H2AX. After separation on SDS–polyacrylamide gels, proteins were electroblotted on nitrocellulose membrane in Transfer Buffer (Glycine, Tris, Methanol). Membranes were washed in TBS/0.1% or 0.05% Tween20 solution and blocked in Tris-buffered saline with 5% of non-fated dried milk for 1 h. Membranes were then incubated overnight with primary antibodies—anti-PARP-1 (Cell Signaling Technology), anti-γ-H2A.X (Cell Signaling Technology), anti-β-actin (Cell Signaling Technology) in cold room (6 °C). After incubation, membranes well washed with TBS/Tween solution and blocked with and horseradish peroxidase-conjugated secondary antibodies (Bio-Rad) for 1 h in cold room. Protein bands were visualized using ECL™ Prime Western Blotting Detection Reagents (Sigma Aldrich) Healthcare and Carestream Kodak autoradiography GBX fixer/replenisher (Sigma Aldrich) with Developer and Replenisher (Carestream) in the dark room. Results were obtained on Autoradiography Film (Santa Cruz Biotechnology). Densitometric analysis was performed by using a software program (ImageJ). […]

A549 cells [3] = experiment: Apoptosis assay by annexin-V/PI double staining, A549; type: cell-based, human; details: A549, 24 h, compound at 2xIC50 (1i 29.74 µM); control 7.80%
Description: Compounds were added to the cells and further incubated for 24 h. After treatment, monolayer and supernatant cells were harvested, washed with PBS and centrifuged (monolayer at 1200 rpm for 10 min, supernatant at 3500 rpm for 10 min). Then, cells were re-suspended in binding buffer and stained with 2 µL of Annexin-V and […] of PI (ANNEXIN-V—FITC Apoptosis Detection Kit, Immunostep) in the dark for 10 min at room temperature. Cells were analysed by BD Accuri C6 Flow Cytometry (Becton–Dickinson). Etoposide (Calbiochem) was used as a reference drug. Experiments were done in triplicates.

PARP-1 = experiment: Western blot of PARP-1 cleavage, A549; type: cell-based, human; details: A549, 24 h, IC50 and 1/2IC50
Description: as §1

Structure (SMILES): O=C(NCCCCNc1c2c(nc3ccccc13)CCCC2)c1ccccc1I [Compound 1c]
- Cytoprotection (SH-SY5Y cells; 0.001 µM): 32.91%
- Cytoprotection (SH-SY5Y cells; 0.01 µM): 37.05%
- Cytoprotection (SH-SY5Y cells; 0.1 µM): 33.15%
- Cytoprotection (SH-SY5Y cells; 1 µM): 33.92%
- Cytoprotective properties in the pre-incubation assay (in words) (SH-SY5Y cells): showed their action against oxidative stress in the whole range of concentrations
- Intercalation: supercoiled pUC19 DNA band (in words) (supercoiled pUC19 DNA): bands at the same level as EB
- IC50 [1]: 244 ± 7.95 µM

Structure (SMILES): O=C(NCCCCNc1c2c(nc3ccccc13)CCCC2)c1ccc(I)cc1 [Compound 1i]
- Increase in ROS level (DCF fluorescence) in comparison with non-treated control (A549 cells [2]): 1.98 fold
- γ-H2AX protein level / DNA damage (in words) (γ-H2AX): higher ability to damage DNA at 1/2IC50 concentration (7.44 µM) than at IC50 concentration (14.87 µM)
- Cytoprotective properties in the pre-incubation assay (in words) (SH-SY5Y cells): did not show cytoprotective properties
- IC50 [1]: 234 ± 8.98 µM
- Total apoptotic cells (A549 cells [3]): 71.98%
- Cleaved PARP-1 (89 kDa) level (in words) (PARP-1): highest effect

Structure (SMILES): O=C(NCCCNc1c2c(nc3ccccc13)CCCC2)c1cccc(I)c1 [Compound 1e]
- Increase in ROS level (DCF fluorescence) in comparison with non-treated control (A549 cells [2]): 1.98 fold
- γ-H2AX protein level / DNA damage (in words) (γ-H2AX): strongest effect
- Cytoprotection (SH-SY5Y cells; 0.001 µM): 36.22%
- Cytoprotection (SH-SY5Y cells; 0.01 µM): 51.19%
- Cytoprotection (SH-SY5Y cells; 0.1 µM): 46.39%
- Cytoprotection (SH-SY5Y cells; 1 µM): 24.79%
- Cytoprotective properties in the pre-incubation assay (in words) (SH-SY5Y cells): showed their action against oxidative stress in the whole range of concentrations
- Intercalation: supercoiled pUC19 DNA band (in words) (supercoiled pUC19 DNA): bands at the same level as EB
- IC50 [1]: 231 ± 5.64 µM
- Total apoptotic cells (A549 cells [3]): 44.96%
- Cleaved PARP-1 (89 kDa) level (in words) (PARP-1): comparable apoptotic effect at their IC50 concentrations; also recorded: highest PARP-1 cleavage was observed for 1/2IC50 (11.75 µM)

Structure (SMILES): O=C(NCCCNc1c2c(nc3ccccc13)CCCC2)c1ccccc1I [Compound 1b]
- Increase in ROS level (DCF fluorescence) in comparison with non-treated control (A549 cells [2]): 1.98 fold
- γ-H2AX protein level / DNA damage (in words) (γ-H2AX): slightly lower
- Cytoprotective properties in the pre-incubation assay (in words) (SH-SY5Y cells): did not show cytoprotective properties
- Intercalation: supercoiled pUC19 DNA band (in words) (supercoiled pUC19 DNA): bands at the same level as EB
- IC50 [1]: 233 ± 4.87 µM
- Total apoptotic cells (A549 cells [3]): 45.31%
- Cleaved PARP-1 (89 kDa) level (in words) (PARP-1): comparable apoptotic effect at their IC50 concentrations
